# Results published in PubChem BioAssay (NCI).
#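 Protocol summary: plate cells (96-well), add compound at 5 concentrations, incubate 48 h, interpolate endpoints linearly. GI50 is the concentration that inhibits growth by half. TGI denotes the concentration required for complete inhibition of growth.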
# Assays:
# Assay in all cases: DTP human tumour cell line panel, 48 h
# [1] = tested on: HS 578T breast
# [2] = tested on: CCRF-CEM leukemia
# [3] = tested on: SNB-19 CNS
# [4] = tested on: A498 renal
# [5] = tested on: COLO 205 colon
# [6] = tested on: SK-MEL-28 melanoma
# [7] = tested on: ACHN renal
# [8] = tested on: TK-10 renal
# [9] = tested on: NCI/ADR-RES ovarian
# [10] = tested on: HCC-2998 colon
# [11] = tested on: OVCAR-5 ovarian
# [12] = tested on: MCF7 breast
# [13] = tested on: U251 CNS
# [14] = tested on: KM12 colon
# [15] = tested on: IGROV1 ovarian
# [16] = tested on: HCT-116 colon
# [17] = tested on: RXF 393 renal
# [18] = tested on: MDA-MB-435
# [19] = tested on: UO-31 renal
# [20] = tested on: A549 NSCLC
# [21] = tested on: SF-295 CNS
# [22] = tested on: OVCAR-3 ovarian
# [23] = tested on: SN12C renal
# [24] = tested on: 786-0 renal
# [25] = tested on: DU-145 prostate
# [26] = tested on: NCI-H460 lung
# [27] = tested on: EKVX NSCLC
# [28] = tested on: HOP-92 NSCLC
# [29] = tested on: BT-549 breast
# [30] = tested on: M14 melanoma
# [31] = tested on: SNB-75 CNS
# [32] = tested on: PC-3 prostate
# [33] = tested on: SW-620 colon
# [34] = tested on: UACC-257 melanoma
# [35] = tested on: SK-OV-3 ovarian
# [36] = tested on: SK-MEL-2 melanoma
# [37] = tested on: SF-539 CNS
# [38] = tested on: MDA-MB-231 breast
# [39] = tested on: SR leukemia
# [40] = tested on: SK-MEL-5 melanoma
# [41] = tested on: HT29 colon
# [42] = tested on: HOP-62 NSCLC
# [43] = tested on: NCI-H23 lung
# [44] = tested on: HL-60(TB) leukemia
# [45] = tested on: RPMI-8226 leukemia
# [46] = tested on: SF-268 CNS
# [47] = tested on: CAKI-1 renal
# [48] = tested on: HCT-15 colon
# [49] = tested on: MALME-3M melanoma
# [50] = tested on: LOX IMVI melanoma
# [51] = tested on: OVCAR-4 ovarian
# [52] = tested on: T-47D breast
# [53] = tested on: UACC-62 melanoma
# [54] = tested on: OVCAR-8 ovarian
# [55] = tested on: NCI-H522 lung
# [56] = tested on: NCI-H226 lung
# [57] = tested on: K-562 leukemia
# [58] = tested on: MOLT-4 leukemia
smiles,measurement,setting,value
CN(C)CCNC(=O)c1ccc(-c2nc3ccc4[nH]ncc4c3c3c2C2CCC3C2)cc1 (stereo not given),GI50,[1],0.494 µM
same,TGI,[1],2.62 µM
same,GI50,[2],1.01 µM
same,TGI,[2],10.1 µM
same,GI50,[3],2.69 µM
same,TGI,[3],9.81 µM
same,GI50,[4],0.22 µM
same,TGI,[4],1.22 µM
same,GI50,[5],0.569 µM
same,TGI,[5],4.19 µM
same,GI50,[6],1.84 µM
same,TGI,[6],5.64 µM
same,GI50,[7],0.564 µM
same,TGI,[7],6.91 µM
same,GI50,[8],0.723 µM
same,TGI,[8],8.02 µM
same,GI50,[9],8.3 µM
same,TGI,[9],26.8 µM
same,GI50,[10],1.74 µM
same,TGI,[10],5.64 µM
same,GI50,[11],3.01 µM
same,TGI,[11],9.85 µM
same,GI50,[12],0.889 µM
same,TGI,[12],6.7 µM
same,GI50,[13],1.17 µM
same,TGI,[13],8.89 µM
same,GI50,[14],0.534 µM
same,TGI,[14],3.36 µM
same,GI50,[15],1.52 µM
same,TGI,[15],6.2 µM
same,GI50,[16],0.432 µM
same,TGI,[16],9.13 µM
same,GI50,[17],0.267 µM
same,TGI,[17],1.18 µM
same,GI50,[18],1.28 µM
same,TGI,[18],4.45 µM
same,GI50,[19],2.03 µM
same,TGI,[19],5.18 µM
same,GI50,[20],1.65 µM
same,TGI,[20],12.8 µM
same,GI50,[21],2.01 µM
same,TGI,[21],5.39 µM
same,GI50,[22],1.71 µM
same,TGI,[22],5.9 µM
same,GI50,[23],1.82 µM
same,TGI,[23],6.88 µM
same,GI50,[24],0.882 µM
same,TGI,[24],4.92 µM
same,GI50,[25],0.965 µM
same,TGI,[25],6 µM
same,GI50,[26],1.56 µM
same,TGI,[26],4.79 µM
same,GI50,[27],1.72 µM
same,TGI,[27],6.91 µM
same,GI50,[28],1.74 µM
same,TGI,[28],4.25 µM
same,GI50,[29],1.25 µM
same,TGI,[29],2.93 µM
same,GI50,[30],0.809 µM
same,TGI,[30],2.75 µM
same,GI50,[31],0.341 µM
same,TGI,[31],1.14 µM
same,GI50,[32],1.24 µM
same,TGI,[32],7.22 µM
same,GI50,[33],0.473 µM
same,TGI,[33],5.16 µM
same,GI50,[34],3.07 µM
same,TGI,[34],9.95 µM
same,GI50,[35],0.348 µM
same,TGI,[35],4.28 µM
same,GI50,[36],1.55 µM
same,TGI,[36],3.74 µM
same,GI50,[37],0.702 µM
same,TGI,[37],2.39 µM
same,GI50,[38],1.64 µM
same,TGI,[38],4.11 µM
same,GI50,[39],0.254 µM
same,TGI,[39],2.65 µM
same,GI50,[40],1.49 µM
same,TGI,[40],4.57 µM
same,GI50,[41],1.84 µM
same,TGI,[41],13 µM
same,GI50,[42],1.29 µM
same,TGI,[42],5.7 µM
same,GI50,[43],1.63 µM
same,TGI,[43],5.94 µM
same,GI50,[44],0.388 µM
same,TGI,[44],2.52 µM
same,GI50,[45],1.35 µM
same,TGI,[45],4.6 µM
same,GI50,[46],0.967 µM
same,TGI,[46],3.3 µM
same,GI50,[47],0.93 µM
same,TGI,[47],5.25 µM
same,GI50,[48],2.44 µM
same,TGI,[48],11.4 µM
same,GI50,[49],1.67 µM
same,TGI,[49],3.96 µM
same,GI50,[50],1.19 µM
same,TGI,[50],2.79 µM
same,GI50,[51],1.6 µM
same,TGI,[51],5.53 µM
same,GI50,[52],2.25 µM
same,TGI,[52],7.86 µM
same,GI50,[53],0.898 µM
same,TGI,[53],3.72 µM
same,GI50,[54],1.4 µM
same,TGI,[54],9.81 µM
same,GI50,[55],1.25 µM
same,TGI,[55],4.33 µM
same,GI50,[56],1.28 µM
same,TGI,[56],5.43 µM
same,GI50,[57],1.29 µM
same,TGI,[57],9.4 µM
same,GI50,[58],1.1 µM
same,TGI,[58],5.56 µM
O=C(/C=C/c1ccc(C(F)(F)F)cc1)Nc1ccc(C=C2c3ccccc3C(=O)c3ccccc32)cc1,GI50,[1],13.1 µM
same,TGI,[1],> 100 µM
same,GI50,[2],3.4 µM
same,TGI,[2],> 100 µM
same,GI50,[3],8.61 µM
same,TGI,[3],> 100 µM
same,GI50,[4],2.6 µM
same,TGI,[4],52.8 µM
same,GI50,[5],6.18 µM
same,TGI,[5],38.4 µM
same,GI50,[6],7.38 µM
same,TGI,[6],> 100 µM
same,GI50,[7],19.4 µM
same,TGI,[7],> 100 µM
same,GI50,[8],23.6 µM
same,TGI,[8],> 100 µM
same,GI50,[9],2.86 µM
same,TGI,[9],30.9 µM
same,GI50,[10],8.71 µM
same,TGI,[10],> 100 µM
same,GI50,[11],43.6 µM
same,TGI,[11],> 100 µM
same,GI50,[12],4.54 µM
same,TGI,[12],> 100 µM
same,GI50,[13],5.69 µM
same,TGI,[13],60.7 µM
same,GI50,[14],2.33 µM
same,TGI,[14],40.6 µM
same,GI50,[15],33.2 µM
same,TGI,[15],> 100 µM
same,GI50,[16],4 µM
same,TGI,[16],> 100 µM
same,GI50,[17],8.26 µM
same,TGI,[17],60.4 µM
same,GI50,[18],0.64 µM
same,TGI,[18],2.67 µM
same,GI50,[19],8.47 µM
same,TGI,[19],> 100 µM
same,GI50,[20],6.14 µM
same,TGI,[20],> 100 µM
same,GI50,[21],4.24 µM
same,TGI,[21],> 100 µM
same,GI50,[22],3.76 µM
same,TGI,[22],18 µM
same,GI50,[23],26.7 µM
same,TGI,[23],> 100 µM
same,GI50,[24],13.6 µM
same,TGI,[24],> 100 µM
same,GI50,[25],30.5 µM
same,TGI,[25],> 100 µM
same,GI50,[26],5.48 µM
same,TGI,[26],> 100 µM
same,GI50,[27],3.37 µM
same,TGI,[27],> 100 µM
same,GI50,[28],1.49 µM
same,TGI,[28],22.4 µM
same,GI50,[29],3.33 µM
same,TGI,[29],48 µM
same,GI50,[30],3.41 µM
same,TGI,[30],18.8 µM
same,GI50,[31],7.26 µM
same,TGI,[31],39.1 µM
same,GI50,[32],1.84 µM
same,TGI,[32],> 100 µM
same,GI50,[33],4.57 µM
same,TGI,[33],> 100 µM
same,GI50,[34],3.87 µM
same,TGI,[34],> 100 µM
same,GI50,[35],12.7 µM
same,TGI,[35],86.7 µM
same,GI50,[36],4.11 µM
same,TGI,[36],30.6 µM
same,GI50,[37],23.1 µM
same,TGI,[37],96.3 µM
same,GI50,[38],16 µM
same,TGI,[38],> 100 µM
same,GI50,[39],0.772 µM
same,TGI,[39],41.7 µM
same,GI50,[40],2.71 µM
same,TGI,[40],13.4 µM
same,GI50,[41],4.56 µM
same,TGI,[41],> 100 µM
same,GI50,[42],11.7 µM
same,TGI,[42],51.9 µM
same,GI50,[43],3.32 µM
same,TGI,[43],> 100 µM
same,GI50,[44],1.78 µM
same,TGI,[44],8.75 µM
same,GI50,[45],1.15 µM
same,TGI,[45],85.9 µM
same,GI50,[46],14.3 µM
same,TGI,[46],> 100 µM
same,GI50,[47],3.39 µM
same,TGI,[47],> 100 µM
same,GI50,[48],4.18 µM
same,TGI,[48],> 100 µM
same,GI50,[49],8.91 µM
same,TGI,[49],> 100 µM
same,GI50,[50],14.2 µM
same,TGI,[50],> 100 µM
same,GI50,[51],5.26 µM
same,TGI,[51],> 100 µM
same,GI50,[52],3.39 µM
same,TGI,[52],56.8 µM
same,GI50,[53],3.04 µM
same,TGI,[53],63.7 µM
same,GI50,[54],15.4 µM
same,TGI,[54],> 100 µM
same,GI50,[55],2.36 µM
same,TGI,[55],25.4 µM
same,GI50,[56],14.2 µM
same,TGI,[56],> 100 µM
same,GI50,[58],4.65 µM
same,TGI,[58],65.1 µM
